Tests used:
[1] = tested on: Escherichia coli (WP2UVrA); details: up to 5000 μg/Plate, absence or presence of S-9 mix of rat liver
Protocol: The mutagenicity was tested by using Escherichia coli (WP2UVrA) and Salmonella (TA98, TA100, TA1535 and TA1538) in the absence or presence of a drug metabolizing enzymes S-9 mix of rat liver.

[2] = tested on: cholesterol-fed hyperlipidemic rats; assay: Antihyperlipidemic activity in cholesterol-fed hyperlipidemic rats (Test 3); type: in vivo, rat (male S.D.)
Protocol: It is administered from once to three times per day. The dose may of course be varied depending upon the age, the weight or the condition of illness of the patient. […] In the following tests, the fractionation of lipoproteins was conducted by a dextran sulfate-MgCl2 precipitation method.
Cholesterol in serum was measured by means of a cholesterol measuring kit (Cholesterol C-Test Wako, manufactured by Wako Junyaku Co., Ltd.), and cholesterol in HDL was measured by means of NC Hi-Set, manufactured by Nippon Chemiphar Co., Ltd. The quantitative analysis of triglyceride was conducted by means of a triglyceride measuring kit (Triglyceride C-II-Test Wako, manufactured by Wako Junyaku Co., Ltd.).
Further, the change rate in the following Tables, was calculated by the following equation.
Change rate(%)=(A-B/A)×100 where A is the amount of serum lipids (mg/dl) of the control group, and B is the amount of serum lipids (mg/dl) of the group to which the therapeutic agent was administered.
The antihyperlipidemic activity in cholesterol-fed hyperlipidemic rats
Male S.D. rats weighing 80-90 g (30 days old) were divided into groups of 5 rats each. The test compounds suspended in 0.5% CMC-Na were given to the rats in a daily dose of 0.4 ml per 100 g rat via stomach tube every 10:00 a.m. for 7 or 14 days. Control groups were given an equal volume of the vehicle. […] The total cholesterol, triglyceride and HDL cholesterol in serum were measured. After sacrificed, the livers were excised, washed with physiological saline, blotted on filter paper and weighed. The degree of hepatomegaly was calculated by the following equation.
Degree of hepatomegaly (%)=(D-C/C)×100 where C is the liver weight (g) per 100 g body weight in the control animal, and D is the liver weight (g) per 100 g body weight in the drug treated animal.

[3] = tested on: experimental atherosclerosis in rabbits induced by cholesterol diet; assay: Effect on experimental atherosclerosis in rabbits induced by cholesterol diet (Test 4); type: in vivo, rabbit (male)
Protocol: The effect of the compound of the formula I on experimental atherosclerosis in rabbits induced by cholesterol diet
Twenty-five male rabbits weighing 1.8-2.0 kg were used. They were fed with basic chow (Nippon clea, CR-3) for a stabilizing period of 5 days. After this period, they were fed with the chow containing 1% cholesterol, 100 g per head a day for a week (7 days) and plasma cholesterol was measured using a blood sample collected from acuricle vein.
According to the results of cholesterol values measured, 14 animals of high cholesterol plasma level were selected. They were divided into two groups to have nearly equal means and S.D. values of plasma cholesterol. One group of 7 rabbits was fed with the chow containing 1% cholesterol and another group of 7 rabbits was fed with the chow containing 1% cholesterol and 0.1% compound of the formula I in an amount of 100 g per head a day for 8 weeks.
Rabbits were sacrificed at the end of 8 weeks. Aortic arch and thoracic aorta were excised, and macroscopical changes were examined using the Sudan III stain method. According to the results of gross observation of the internal surface stained by Sudan III, the ratios of the atherosclerotic plaque area (the area stained by Sudan III) to the whole internal surface area were calculated. The ratio of inhibition of atherosclerosis of the compound of the formula I was obtained by comparing the average value with the value of the control.

[4] = 0.1% in 1% cholesterol chow, 8 weeks, vs control
[5] = 0.1% in 1% cholesterol chow, 100 g per head a day, 8 weeks

## CN1C(=S)SC(c2ccccc2)N(C)C1c1ccccc1 (stereo not drawn) [Compound of the formula I, 3,5-dimethyl-4,6-diphenyl-tetrahydro-2H-1,3,5-thiadiazine-2-thione]
[1]
  Mutagenicity: did not show any mutagenicity
[2]; 7 or 14 days
  Hepatomegaly (in words): no hepatomegaly
[2]; 7th day
  Lipid reducing and HDL-cholesterol increasing activity (in words): not distinct very much
[2]; 7th day, 10 mg/kg/day p.o.
  Change rate, HDL-Chol: -12.7%
  Change rate, TG: -13.8%
  Change rate, Total-Chol: -3.3%
  Degree of hepatomegaly: +4.0%
  Serum lipid, HDL-Chol: 15.8 mg/dL
  Serum lipid, TG: 105.9 mg/dL
  Serum lipid, Total-Chol: 421.7 mg/dL
[2]; 7th day, 50 mg/kg/day p.o.
  Change rate, HDL-Chol: 0%
  Change rate, TG: -15.3%
  Change rate, Total-Chol: -33.6%
  Degree of hepatomegaly: +2.0%
  Serum lipid, HDL-Chol: 18.1 mg/dL
  Serum lipid, TG: 104.0 mg/dL
  Serum lipid, Total-Chol: 289.8 mg/dL
[2]; 7th day, 100 mg/kg/day p.o.
  Change rate, HDL-Chol: +6.1%
  Change rate, TG: -24.5%
  Change rate, Total-Chol: -32.4%
  Serum lipid, HDL-Chol: 19.2 mg/dL
  Serum lipid, TG: 92.7 mg/dL
  Serum lipid, Total-Chol: 294.7 mg/dL
[2]; 7th day, 150 mg/kg/day p.o.
  Change rate, HDL-Chol: -4.4%
  Change rate, TG: -46.1%
  Change rate, Total-Chol: -11.7%
  Degree of hepatomegaly: +12.0%
  Serum lipid, HDL-Chol: 17.3 mg/dL
  Serum lipid, TG: 66.2 mg/dL
  Serum lipid, Total-Chol: 385 mg/dL
[2]; 14th day
  Lipid reducing and HDL-cholesterol increasing activity (in words): strong lipid reducing activity and HDL-cholesterol increasing activity
[2]; 14th day, 10 mg/kg/day p.o.
  Change rate, HDL-Chol: +129.9%
  Change rate, TG: -44.6%
  Change rate, Total-Chol: -42.5%
  Degree of hepatomegaly: +5.3%
  Serum lipid, HDL-Chol: 20.0 mg/dL
  Serum lipid, TG: 92.5 mg/dL
  Serum lipid, Total-Chol: 336.5 mg/dL
[2]; 14th day, 50 mg/kg/day p.o.
  Change rate, HDL-Chol: +135.6%
  Change rate, TG: -47.5%
  Change rate, Total-Chol: -33.5%
  Degree of hepatomegaly: +1.8%
  Serum lipid, HDL-Chol: 20.5 mg/dL
  Serum lipid, TG: 87.7 mg/dL
  Serum lipid, Total-Chol: 389.2 mg/dL
[2]; 14th day, 100 mg/kg/day p.o.
  Change rate, HDL-Chol: +186.2%
  Change rate, TG: -44.8%
  Change rate, Total-Chol: -53.7%
  Degree of hepatomegaly: +10.5%
  Serum lipid, HDL-Chol: 24.9 mg/dL
  Serum lipid, TG: 92.2 mg/dL
  Serum lipid, Total-Chol: 271.3 mg/dL
[2]; 14th day, 150 mg/kg/day p.o.
  Change rate, HDL-Chol: +147.1%
  Change rate, TG: -53.8%
  Change rate, Total-Chol: -60.9%
  Degree of hepatomegaly: +5.3%
  Serum lipid, HDL-Chol: 21.5 mg/dL
  Serum lipid, TG: 77.1 mg/dL
  Serum lipid, Total-Chol: 228.6 mg/dL
[3]; [4]
  Ratio of inhibition of atherosclerosis (Ratio of Improvement), Aortic arch: 13.8%
  Ratio of inhibition of atherosclerosis (Ratio of Improvement), Thoracic aorta: 67.7%
  Ratio of inhibition of atherosclerosis (Ratio of Improvement), Total aorta: 45.3%
[3]; [5]
  Atherosclerotic plaque area stained by Sudan III, Aortic arch: 77.7%
  Atherosclerotic plaque area stained by Sudan III, Thoracic aorta: 11.0%
  Atherosclerotic plaque area stained by Sudan III, Total aorta: 26.3%
[3]; 1% cholesterol diet
  Inhibition of experimental atherosclerosis (in words): inhibits experimental atherosclerosis
